Source: patent US4096112A, “2-Phenyl-indole derivative stabilizers for PVC resins” (Labaz, priority 1976, dated 1978)

Tests used:
mice [1] = experiment: Maximal dose which does not provoke any death (LD0), oral route, mice; type: in vivo; conditions: for Toxic symptoms: LD0 test
Procedure: (§1) A gummy suspension of the substance under study was administered by oral route to groups of at least ten mice and the following results were observed: […]

[2] = Sublimation of the stabilizers; type: physicochemical; conditions: 120° C, 15 Torr, 150 minutes; for Percentage of sublimated substance: cold wall 13° C, 150 mg
Excerpt: The tendency to sublimate of 2-(3'-methoxy-4'-hydroxy-phenyl)-indole (Stabilizer 2) was compared to that of 2-phenyl-indole.
A sample of the substance to be tested was introduced into a test tube and heated under reduced pressure. The fraction of sublimated substance was recovered on a mobile cold wall.
After a certain period of time, the sublimated substance was weighed and the result expressed as a percentage of the weight of the starting material.
The results obtained can only be of relative value enabling a comparison to be made between two products tested under the same conditions.
Operating conditions (chosen at random)

[3] = Static thermostability of the stabilized resin, GARDNER Scale comparator; conditions: 210° C
Procedure: (§2) These studies were performed with five different formulae of vinyl resins (hereinafter referred to as Compounds).
(§3) The different Compounds were mixed and calendered in a mixer of which the cylinders were heated to 160° C. The rigid sheets so obtained were then heated in an oven to a temperature between 180° C and 215° C, until incipient carbonization.
(§4) A stove with rotating drums, ventilated and equipped with a thermostat was used for this operation. In the trials described hereunder, the behaviour of the sheets containing one of the stabilizers to be tested was compared to that of sheets of the same formulae but containing 2-phenylindole as stabilizer.
(1) The coloration of the sheets, of which samples were removed from the stove at fixed intervals, was compared to a standard scale of coloration, known as the GARDNER Scale and expressed in terms of the reference figures of the GARDNER Scale.
Comparisons were made with a GARDNER Scale comparator which contains 18 filters of coloured glass and which offers the possibility of observing by transparency and in a limited field of view both the sheet and the reference filters.

[4] = Thermostability of the stabilizers: differential thermoanalysis; type: physicochemical; conditions: 2° C/minute, 2 mg
Procedure: (§5) The thermostability of Stabilizer 2 and that of 2-phenyl-indole were studied by differential thermoanalysis and by thermogravimetric analysis.
Differential thermoanalysis diagrams were drawn up by studying 2 mg samples of material placed in a non-airtight container, the rate of temperature increase being 2° C/minute and sensitivity 4 mcal/sec.
The diagrams were made out for 2-phenyl-indole (i) and Compound 2 (ii) and enabled the following conclusions to be drawn: […]

[5] = Static thermostability of the stabilized resin, simplified method (GARDNER sub-scale in polyvinyl chloride sheets)
Procedure: as §2, §3, §4
(2) It is also possible to use a simplified method which is more rapid and with which valid results are also obtained: A reference scale is drawn up with sheets of thermally treated polyvinyl chloride, of which the colorations have been definitely determined in GARDNER degrees as above.
A GARDNER sub-scale is thus obtained in polyvinyl chloride sheets which can be directly compared to the sheets to be tested without using the comparator.

[6] = type: physicochemical; conditions: water; for Extractibility compared with 2-phenyl-indole: aqueous ethanol and heptane
Procedure: The stabilizers according to the invention may be used to stabilize polymers which are intended for the manufacture of packaging and containers for food and drink and it was therefore necessary, in spite of their low toxicity, to determine their extractibility by solvents simulating food and drink. This study was carried out in accordance with the requirements of the Food and Drug Administration (U.S.A). The extractions were performed in semi-rigid bottles, prepared with Compounds Nos. 609 and 676, and with the following solvents: water, an aqueous solution of acetic acid (3%), ethanol-water 50/50, heptane. The ratio of the volume of solvent to the surface of plastic material exposed to extraction was about 1 to 100 ml of solvent, taking into account the geometric characteristics of the bottles. Temperature: 49° C Heating: A thermostated oven for the non-inflammable solvents (water and acetic acid) A thermostated water-bath for the inflammable solvents (alcohol and heptane) Duration of extraction: This is indicated under each result. They are, in each case, intentionally longer than those which would have given stable maximum values. The quantity of stabilizer extracted was determined by colorimetric assay using p-dimethylaminobenzaldehyde, in accordance with the method described in Analytical Chemistry 36, 425-26 (1964). A blank trial was carried out with a Compound of the same formula as Compounds Nos. 609 and 676, but without any stabilizer. A purely negative result was obtained. The amounts of stabilizer assayed are expressed in μg per liter of extraction solvent or, which is the same per 1000 cm^2 of surface submitted to extraction.

[7] = Thermostability of the stabilizers: thermogravimetric analysis; type: physicochemical
Procedure: as §5
This analysis necessitated two series of trials carried out under air and under inert gas (argon) in order to eliminate any possible effect of oxygen. The results obtained were identical.
The temperature increase rate was 80° /hour.
Thermograms were drawn up under air for both 2-phenyl-indole (i) and for Stabilizer 2 (ii) and enabled the following conclusions to be drawn: […]

[8] = Acute toxicity (LD50), oral route, mice; type: in vivo; conditions: mouse, in vivo, gummy suspension
Procedure: (§6) The acute toxicity (LD50) of the stabilizers listed below was carried out, by determining the dose of substance which provoked the death of 50% of the treated animals.
as §1

mice [9] = experiment: Acute toxicity (LD50), oral route, mice; type: in vivo; conditions: LD50 test
Procedure: as §6, §1

In the case of COc1cc(-c2cc3ccccc3[nH]2)ccc1OCc1ccccc1 [Stabilizer 31, 2-(3'-methoxy-4'-benzyloxy-phenyl)-indole], the “LD0 (maximal dose which does not provoke any death)” value (mice [1]) is reported as over 500 mg/kg and the Toxic symptoms (mice [1]) is reported as “none”.

With COc1cc(-c2cc3ccccc3[nH]2)ccc1O [Stabilizer 2, 2-(3'-methoxy-4'-hydroxy-phenyl)-indole] the “Sublimation compared with 2-phenyl-indole (ratio)” value [2] was “twenty times less than that of 2-phenyl-indole”, the “Percentage of sublimated substance” value [2] was 1.2% and the “Static thermostability compared with 2-phenyl-indole” value ([3]; Compound A) was “superior to 2-phenylindole”. The “Static thermostability compared with 2-phenyl-indole” value ([3]; Compound B) was “superiority of Stabilizer 2 over 2-phenyl-indole is evident after 21 minutes”, the Loss of water [4] was “no loss of water” and the “Static thermostability compared with 2-phenyl-indole” value ([5]; Compound C, 210° C) was “superior as a stabilizer to 2-phenyl-indole”. For the same molecule, the “Static thermostability compared with 2-phenyl-indole” value ([5]; Compound D, 185° C, 0, 10 and 20 minutes) was “markedly superior to 2-phenyl-indole at 0, 10 and 20 minutes”, the “Extractibility, times less than 2-phenyl-indole” value [6] was “at least 10 times less” and the “Extractibility compared with 2-phenyl-indole” value [6] was “markedly less extractible than 2-phenyl-indole”. The “Thermostability compared with 2-phenyl-indole” value ([7]; thermogravimetric analysis and differential thermoanalysis) was “greater thermostability than 2-phenyl-indole”, the LD50 [8] was over 2000 mg/kg and the Toxic symptoms (mice [9]) was “none”.

For CCCCCCCCCCCCc1cc(-c2cc3ccccc3[nH]2)ccc1O [Stabilizer 19, 2-(3'-dodecyl-4'-hydroxy-phenyl)-indole], the “Extractibility compared with 2-phenyl-indole” value [6] was “markedly less extractible than 2-phenyl-indole”.

With CCCCCCCCCCCCOc1ccc(-c2cc3ccccc3[nH]2)cc1OC [Stabilizer 24, 2-(3'-methoxy-4'-dodecyloxy-phenyl)-indole] the “Extractibility compared with 2-phenyl-indole” value [6] was “markedly less extractible than 2-phenyl-indole”.

With COc1cc(OC)cc(-c2cc3ccccc3[nH]2)c1 [Stabilizer 3, 2-(3',5'-dimethyoxy-phenyl)-indole] the “Static thermostability compared with 2-phenyl-indole” value ([5]; Compound A, 210° C) was “markedly superior to 2-phenyl-indole”, the LD50 [8] was over 2000 mg/kg and the Toxic symptoms (mice [9]) was “none”.

In the case of c1ccc2[nH]c(-c3ccc4c(c3)OCCO4)cc2c1 [Stabilizer 34, 2-(3',4'-ethylenedioxy-phenyl)-indole], the “LD0 (maximal dose which does not provoke any death)” value (mice [1]) is reported as over 3000 mg/kg and the Toxic symptoms (mice [1]) is reported as “none”.

With COc1ccc(-c2cc3ccccc3[nH]2)cc1OCc1ccccc1 [Stabilizer 29, 2-(3'-benzyloxy-4'-methoxy-phenyl)indole] the “LD0 (maximal dose which does not provoke any death)” value (mice [1]) was over 500 mg/kg and the Toxic symptoms (mice [1]) was “none”.

With COc1ccc(-c2cc3ccccc3[nH]2)cc1O [Stabilizer 13, 2-(3'-hydroxy-4'-methoxy-phenyl)-indole] the “Static thermostability compared with 2-phenyl-indole” value ([5]; Compound A, 210° C) was “clearly superior to 2-phenyl-indole”.

In the case of CCCCCCCCCCCCOc1ccc(-c2cc3ccccc3[nH]2)cc1C [Stabilizer 30, 2-(3'-methyl-4'-dodecyloxy-phenyl)-indole], the “Extractibility compared with 2-phenyl-indole” value [6] is reported as “markedly less extractible than 2-phenyl-indole”.

In the case of c1ccc2[nH]c(-c3ccc4c(c3)OCO4)cc2c1 [Stabilizer 33, 2-(3',4'-methylenedioxy-phenyl)-indole], the “LD0 (maximal dose which does not provoke any death)” value (mice [1]) is reported as over 3000 mg/kg and the Toxic symptoms (mice [1]) is reported as “none”.

With COc1c(C)cc(-c2cc3ccccc3[nH]2)cc1C [Stabilizer 17, 2-(3',5'-dimethyl-4'-methoxy-phenyl)-indole] the “LD0 (maximal dose which does not provoke any death)” value (mice [1]) was over 3000 mg/kg and the Toxic symptoms (mice [1]) was “none”.

For COc1ccc(-c2cc3ccccc3[nH]2)cc1C(C)C [Stabilizer 15, 2-(3'-isopropyl-4'-methoxy-phenyl)-indole], the LD50 [8] was over 3000 mg/kg and the Toxic symptoms (mice [9]) was “none”.

With c1ccc(-c2cc3ccccc3[nH]2)cc1 [2-phenyl-indole] the “Percentage of sublimated substance” value [2] was 26.9%, the Loss of water [4] was “no loss of water at 100 °C” and the Residue / decomposition ([7]; under air, 210° C) was “a yellowish residue was, in fact, obtained at 210 °C which constitutes proof of decomposition”. The Toxic symptoms (mice [9]) was “none”.

In the case of COc1cc(-c2cc3ccccc3[nH]2)ccc1OC(C)C [Stabilizer 27, 2-(3'-methoxy-4'-isopropyloxy-phenyl)-indole], the “LD0 (maximal dose which does not provoke any death)” value (mice [1]) is reported as over 3000 mg/kg and the Toxic symptoms (mice [1]) is reported as “none”.

With CCCCCCCCCCCCc1cc(-c2cc3ccccc3[nH]2)ccc1OC [Stabilizer 14, 2-(3'-dodecyl-4'-methoxy-phenyl)-indole] the “Extractibility compared with 2-phenyl-indole” value [6] was “markedly less extractible than 2-phenyl-indole”, the LD50 [8] was over 3000 mg/kg and the Toxic symptoms (mice [9]) was “none”.

With CCOc1ccc(-c2cc3ccccc3[nH]2)cc1OC [Stabilizer 23, 2-(3'-methoxy-4'-ethoxy-phenyl)-indole] the “LD0 (maximal dose which does not provoke any death)” value (mice [1]) was over 500 mg/kg and the Toxic symptoms (mice [1]) was “none”.

For CCCCOc1ccc(-c2cc3ccccc3[nH]2)cc1OC [Stabilizer 25, 2-(3'-methoxy-4'-butyloxy-phenyl)-indole], the “LD0 (maximal dose which does not provoke any death)” value (mice [1]) was over 3000 mg/kg and the Toxic symptoms (mice [1]) was “none”.
